Legend:
[1] = system: other prostaglandin receptor subtypes; conditions: FP over other subtypes
Protocol: (§1) Selectivity of compound II was tested against all eight prostaglandin receptor subtypes.

[2] = target: prostaglandin E receptor 2 (EP2) (Homo sapiens, UniProt P43116); conditions: FP over EP2
Protocol: as §1

[3] = system: OT-induced myometrial contractility; assay: Oxytocin-induced contractions of human myometrial biopsies (myograph); conditions: 6, 60, 600, 6000 nM
Protocol: Experiments were performed using a DMT Myograph 800 MS (ADINSTRUMENTS™) in oxygenated Kreb's solution with ADI Powerlab software. Once regular contractions had been established for at least 20 minutes, baseline measurements of spontaneous contraction frequency were recorded. The measurement of spontaneous contraction frequency is represented on the x-axis as “Spon.” A DMSO control or compound II was then added to each myometrial sample at the indicated concentrations and the effects of control or compound II on contractile frequency were measured over the ensuing 10-minute period. This time point is represented on the x-axis as “Compound II.” The effects of compound II on contractile frequency in the presence of OT were subsequently measured by challenging the myometrial tissue samples with increasing concentrations of OT (1 nM, 10 nM, and 100 nM) at sequential 10-minute intervals. […] Once regular contractions had been established for at least 20 minutes, baseline measurements of spontaneous work done per contraction were recorded. The measurement of spontaneous work done per contraction is represented on the x-axis as “Spon.” A DMSO control or compound II was then added to each myometrial sample at the indicated concentrations and the effects of control or compound II on work done per contraction were measured over the ensuing 10-minute period. […]

prostaglandin E receptor 2 (EP2), sequence (P43116 whole entry): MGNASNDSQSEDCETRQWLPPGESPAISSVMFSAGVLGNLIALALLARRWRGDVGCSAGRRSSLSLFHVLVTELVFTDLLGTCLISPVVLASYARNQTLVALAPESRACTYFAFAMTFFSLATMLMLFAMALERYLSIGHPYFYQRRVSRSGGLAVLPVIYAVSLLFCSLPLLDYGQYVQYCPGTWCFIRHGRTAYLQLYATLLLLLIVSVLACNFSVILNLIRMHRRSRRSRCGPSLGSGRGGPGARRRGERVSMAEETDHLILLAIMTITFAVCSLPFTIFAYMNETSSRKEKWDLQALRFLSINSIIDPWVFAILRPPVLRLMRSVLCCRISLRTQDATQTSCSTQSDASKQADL

## O=C(N[C@@H](CCO)c1ccc(F)cc1)[C@@H]1SCCN1S(=O)(=O)c1ccc(-c2ccccc2)cc1 [Compound II, 3-([1,1′-biphenyl]-4-ylsulfonyl)-N-[1-(4-fluorophenyl)-3-hydroxypropyl]-1,3-thiazolidine-2-carboxamide]
[1]
  Selectivity against other prostaglandin receptors: higher than 100 fold
[2]
  Selectivity versus prostaglandin E receptor 2 (EP2): approximately 10 fold
[3]
  Effect on OT-induced myometrial contractility: suppressing both PGF2α-induced and OT-induced myometrial contractility in a dose-dependent fashion
